# Measurements taken from patent EP3150574B1, “AMANTADINE NITRATE COMPOUND HAVING A NEUROPROTECTIVE EFFECT AND PREPARATION AND MEDICAL USE THEREOF” (Guangzhou Magpie Pharmaceuticals Co., Ltd., priority 2014, dated 2015).
# System: primary cerebellum granule cells of rats
# Test: Protective effects of compounds on primary cerebellum granule cells against glutamate-induced excitotoxic injury (MTT cell viability)
# Assay type: cell-based
# Conditions: protective effect on rat's nerve cells, pre-protection 2 h, then for 24 h, absorbance at 570 nm
# Method: Isolated primary cerebellum granule cells of infant rats were inoculated in 96-well plates with 1.2×10^5/well by using 10% FBS + 25 mM KCl + 2 mM Glutamine + 1% of double-antibody BME medium. After 24 hours, cytarabine with a final concentration of 10 iM was added to inhibit the proliferation of neurogliocyte cells. After the day 4, glucose with the final concentration of 5 mM was added every four days to complement energy metabolism and water evaporation of cells. The materials were placed in a cell incubator (37 °C, 5% CO2) to be cultured for 10 days. […] After pre-protection for 2 h, 200 iM of glutamate was added to induce cell damage for 24h, and then MTT was added to culture for 4 h. The supernatant fraction was sucked, and 150 iL of DMSO was added to each well for dissolving. After blending with shaking, the light absorption values under 570 nm wavelength was measured with a microplate reader, and the viability of cells was calculated. Cell viability (%) = absorbance of different groups / absorbance of the normal control group × 100%.
row,SMILES,EC50 [µM]
1,CCC12CC3CC(N)(C1)CC(CO[N+](=O)[O-])(C3)C2 (stereo not shown) [NM-004],8.12
2,CCC12CC3CC(N)(C1)CC(CCCO[N+](=O)[O-])(C3)C2 (stereo not shown) [NM-005],6.06
3,NC12CC3CC(CCO[N+](=O)[O-])(C1)CC(CCO[N+](=O)[O-])(C3)C2 [NM-009],5.2
4,CC(CO[N+](=O)[O-])CC12CC3CC(N)(C1)CC(CC(C)CO[N+](=O)[O-])(C3)C2 (stereo not shown) [NM-012],9.3
